Test results reported in the supplement of paper PMC10307832.

Assays:
Test in all cases: relative viability (nuclei count vs DMSO), 5 days (fraction); higher = more cells survive
BGJ398 + Pictilisib = compound: CCN1CCN(c2ccc(Nc3cc(N(C)C(=O)Nc4c(Cl)c(OC)cc(OC)c4Cl)ncn3)cc2)CC1 [BGJ398] + CS(=O)(=O)N1CCN(Cc2cc3nc(-c4cccc5[nH]ncc45)nc(N4CCOCC4)c3s2)CC1 [Pictilisib] (partner 1 µM)
Summary of the method: (§1)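 Five library-drug doses in √10 steps were combined with a fixed anchor-drug dose, or a single drug was given alone, by pin tool to lung cancer cell lines in 1536-well plates the day after seeding. Nuclei were stained and counted after 5 days. Relative viability is the nuclei count in treated wells over that in vehicle wells, taken as the median of duplicate plates.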

[1] = compound: C1=CC2=NC=CN=C2C=C1/C=C/3\C(=O)NC(=O)S3 + CC(=O)Nc1cccc(-n2c(=O)n(C3CC3)c(=O)c3c(Nc4ccc(I)cc4F)n(C)c(=O)c(C)c32)c1 [Trametinib] (partner 0.02 µM)
Summary of the method: as §1

BGJ398 + Olaparib = compound: CCN1CCN(c2ccc(Nc3cc(N(C)C(=O)Nc4c(Cl)c(OC)cc(OC)c4Cl)ncn3)cc2)CC1 [BGJ398] + O=C(c1cc(Cc2n[nH]c(=O)c3ccccc23)ccc1F)N1CCN(C(=O)C2CC2)CC1 [Olaparib] (partner 8 µM)
Summary of the method: as §1

[2] = compound: C1=CC2=NC=CN=C2C=C1/C=C/3\C(=O)NC(=O)S3 + CCNC(=O)c1noc(-c2cc(C(C)C)c(O)cc2O)c1-c1ccc(CN2CCOCC2)cc1 [Luminespib] (partner 0.01 µM)
Summary of the method: as §1

Cell Line	relative viability (BGJ398 + Pictilisib; first compound 0.01 µM)	relative viability (BGJ398 + Pictilisib; first compound 0.03162 µM)	relative viability (BGJ398 + Pictilisib; first compound 0.1 µM)	relative viability (BGJ398 + Pictilisib; first compound 0.3162 µM)	relative viability (BGJ398 + Pictilisib; first compound 1 µM)	relative viability ([1]; first compound 0.02 µM)	relative viability ([1]; first compound 0.06325 µM)	relative viability ([1]; first compound 0.2 µM)	relative viability ([1]; first compound 0.6325 µM)	relative viability ([1]; first compound 2 µM)	relative viability (BGJ398 + Olaparib; first compound 0.01 µM)	relative viability (BGJ398 + Olaparib; first compound 0.03162 µM)	relative viability (BGJ398 + Olaparib; first compound 0.1 µM)	relative viability (BGJ398 + Olaparib; first compound 0.3162 µM)	relative viability (BGJ398 + Olaparib; first compound 1 µM)	relative viability ([2]; first compound 0.02 µM)	relative viability ([2]; first compound 0.06325 µM)	relative viability ([2]; first compound 0.2 µM)	relative viability ([2]; first compound 0.6325 µM)	relative viability ([2]; first compound 2 µM)
HCC-78	0.184	0.217	0.188	0.194	0.221	0.772	0.643	0.677	0.794	0.532	0.785	0.838	0.967	0.78	0.823	–	–	–	–	–
HCC-366	0.0862	0.146	0.137	0.277	0.0758	0.307	–	0.39	0.311	0.309	0.368	0.378	0.422	0.335	0.448	–	–	–	–	–
HCC-827	0.961	0.696	0.977	0.817	1.03	0.611	0.35	0.505	0.456	0.544	0.468	–	0.583	0.482	0.628	0.716	0.871	0.64	0.587	0.746
HOP-62	0.731	0.768	0.649	1.16	0.669	0.355	0.366	0.419	0.369	0.38	0.291	0.525	0.538	0.349	0.558	0.725	0.831	0.904	0.9	0.922
IA-LM	0.343	0.39	0.334	0.391	0.311	–	–	–	–	–	0.772	0.841	0.917	0.742	0.79	–	–	–	–	–
LC-2-ad	0.547	0.492	0.467	0.419	0.392	0.884	0.991	0.931	0.972	0.83	0.766	0.759	0.694	0.677	0.749	0.984	0.727	1.08	1.07	0.739
LCLC-97TM1	0.186	0.189	0.207	0.298	0.163	0.197	0.193	0.222	0.232	0.167	0.294	0.393	0.443	0.508	0.277	0.767	0.839	0.823	0.671	0.499
LCLC-103H	0.652	0.576	0.486	0.52	0.465	0.676	0.701	0.634	0.665	0.666	0.756	0.787	0.726	0.717	0.596	1.02	0.966	0.906	0.966	0.806
LK-2	0.555	0.529	0.326	0.235	0.245	0.769	0.813	0.847	0.828	0.567	0.624	0.532	0.374	0.186	0.227	0.186	0.202	0.28	0.175	0.175
LOU-NH91	0.515	0.524	0.52	0.484	0.453	0.791	0.808	0.799	0.792	0.726	0.884	0.707	0.92	0.699	0.927	0.363	0.344	0.334	0.346	0.314
LU99A	0.281	0.314	0.302	0.307	0.261	0.564	0.47	0.607	0.587	0.427	0.266	0.26	0.281	0.276	0.292	0.296	0.207	0.294	0.267	0.24
LXF-289	0.773	0.707	0.682	0.685	0.573	0.671	0.655	0.649	0.662	0.688	1.01	0.973	1.17	0.919	1.07	0.638	0.738	0.693	0.642	0.561
NCI-H522	–	–	–	–	–	0.75	0.781	0.806	0.771	0.659	0.714	0.684	0.607	0.651	0.621	1.06	1.09	1.18	1.05	0.956
NCI-H1299	0.742	0.807	0.847	0.827	0.965	–	–	–	–	–	0.961	0.971	0.977	1	0.999	–	–	–	–	–
NCI-H1563	0.66	0.612	0.512	0.479	0.475	–	–	–	–	–	–	–	–	–	–	0.512	0.469	0.514	0.438	0.509
NCI-H1623	–	–	–	–	–	–	–	–	–	–	–	–	–	–	–	0.379	0.431	0.474	0.47	0.335
NCI-H1648	–	–	–	–	–	0.434	0.401	0.496	–	0.487	0.658	–	1.18	0.85	0.487	–	–	–	–	–
NCI-H1703	0.233	0.198	0.21	0.218	0.242	–	–	–	–	–	0.342	0.396	0.379	0.364	0.543	–	–	–	–	–
NCI-H2342	–	–	–	–	–	0.698	0.865	0.821	0.801	0.792	0.517	0.46	0.541	0.482	0.444	0.721	0.672	0.756	0.601	0.636
SW 900	–	–	–	–	–	0.554	0.853	0.742	–	0.776	0.867	0.822	0.851	0.679	0.761	0.163	0.176	0.173	0.223	0.21
